Experimental data as given in patent US8022043B2, “Ceramide derivatives as modulators of immunity and autoimmunity” (Albert Einstein College of Medicine of Yeshiva University, priority 2004, dated 2011).
pEC50: −log10 of the molar value.

Assays:
[1] = test system: C57BL/6 mice; assay: Serum IL-4 and IFNγ after a single i.p. injection; assay type: in vivo; conditions: 20 hours after single i.p. injection of 4.8 nanomoles
Procedure: Serum levels of L-4 and IFNγ after a single injection of DB01-1, DB03-4, or DB03-5 are shown. C57BL/6 mice (11-13 weeks old) were given a single i.p. injection of 4.8 nanomoles of the compounds or phosphate buffered saline (PBS)/vehicle control. Serum cytokine levels were measured 2 and 20 hours later by capture ELISA. Bars show means of three mice, with standard deviation. Note that DB01-1 has nearly identical structure to KRN7000 (C24 fatty acid as compared to C26) and has activity that is indistinguishable from KRN7000 in multiple bioassays. We use DB01-1 as a “KRN7000 mimic” because it has been synthesized by our group and is readily available for our studies, and KRN7000 was unavailable due to license restrictions.
A most intriguing property of KRN7000 analogues is that in some cases they may elicit immune responses that are qualitatively different from those that occur following stimulation with the parent compound. […] This selective activation of IL-4 production by NK T cells was proposed to be the basis for the enhanced therapeutic effects of OCH in the EAE model of central nervous system autoimmune disease. We have observed a similar in vivo effect on the nature of the NK T cell response using several of our ceramide-like glycolipids. […] These responses are similar to those seen for DB01-1, an analogue that is structurally almost identical to KRN7000 (C24 fatty acid instead of C26, otherwise identical) and indistinguishable in terms of its activity in our hands. […] This selective IL-4 induction is virtually identical to that reported for the OCH analogue, and thus illustrates the potential for amino substituted analogues of KRN7000 to induce qualitatively different immunomodulatory effects in vivo. The results reported in FIG. 9 were obtained by measuring serum levels of IL-4 and IFNγ after administering a single injection of […], DB03-4, or DB03-5 to C57BL/6 mice. C57BL/6 mice (11-13 weeks old) were given a single i.p. injection of 4.8 nanomoles of the ceramide-like glycolipids or PBS/vehicle control. Serum cytokine levels were measured 2 and 20 hours later by capture ELISA. Bars show means of three mice, with standard deviation.
For experiments involving in vivo treatment of mice with the ceramide-like glycolipids, the ceramide-like glycolipids were administered by i.p. or i.v. injection in 0.2 ml PBS+0.025% Tween-20, or in vehicle alone. A typical dose is about 4-5 nmoles per animal per injection. Representative references for administering an α-galactosyl ceramide to mice by i.p., i.v. or p.o. routes are S. Sharif et al., Activation of natural killer T cells by alpha-galactosylceramide treatment prevents the onset and recurrence of autoimmune Type 1 diabetes, Nat. Med., Sep. 7, 2001, (9):1057-62 and K. Miyamoto et al., A synthetic glycolipid prevents autoimmune encephalomyelitis by inducing TH2 bias of natural killer T cells, Nature. Oct. 4, 2001, 413(6855):5314.

[2] = test system: Bulk splenocytes from C57BL/6 mice; assay: Cytokine response of splenocyte cultures (IL-4 and IFNγ ELISA); assay type: cell-based; conditions: 500 nM glycolipid, 48 hours
Procedure: The cytokine response reported in Table 1 and FIG. 5C was determined by the following procedure: Bulk splenocytes from C57BL/6 mice were plated at 300,000 per well in 96-well flat-bottom tissue culture plates with ceramide-like glycolipids diluted to a concentration of 500 nM in 200 microliters complete medium. After 48 h at 37° C., 150 microliters of supernatant was removed for cytokine measurements. Supernatant levels of IL-4, and IFNγ were measured by standard enzyme-linked immunosorbent assay (ELISA), using capture and biotinylated detection antibody pairs (clones 11B11/BVD6-24G2-biotin, and R4-6A2/XMG1.2-biotin, respectively, from BD Pharmingen, San Diego, Calif.). […] Standards for IL-4 and IFNγ were from Peprotech (Rocky Hill, N.J.).

[3] = test system: Bulk splenocytes from C57BL/6 mice; assay: Splenocyte proliferation assay (3H-thymidine incorporation); assay type: cell-based; conditions: Mus musculus, concentration giving 50% maximal response in proliferation of splenocyte cultures
[4] = culture supernatant ELISA, ND = below the reliable level for detection

CCCCCCCCCCCCCCCCCCCCCCCC(=O)N[C@@H](COC1OC(CO)C(O)C(O)C1O)[C@H](O)[C@H](O)CCCCCCCCCCCCCC (stereo partly drawn) [DB01-1]
serum IFNγ response [1]: strong IFNγ response
IL-4/IFNγ ratio divided by this ratio for DB01-1 (value in parentheses) [2]: 1.0
ratio IL-4/IFNγ [2]: 0.026
Cytokine Response IFNγ [2, 4]: 7.29 ng/mL
Cytokine Response IL-4 [2, 4]: 0.19 ng/mL
pEC50 [3]: 7.20
